Assay results taken from patent US20140058103A1, “Inhibitors of PI3K-Delta and Methods of Their Use and Manufacture” (Exelixis, Inc., priority 2010, published 2014).

What follows are molecules tested against PI3K delta (Homo sapiens, UniProt O00329) (assay: Luciferase-coupled chemiluminescence kinase assay (ATP consumption, KinaseGlo)).
Assay type: biochemical
Outline: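 ATP consumption measured by KinaseGlo luciferase chemiluminescence after a 2 h reaction at ambient temperature, with ATP at or below the kinase KM. Ten inhibitor concentrations per curve; IC50 from four-parameter nonlinear regression.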

Sequence of PI3K delta (O00329 whole entry): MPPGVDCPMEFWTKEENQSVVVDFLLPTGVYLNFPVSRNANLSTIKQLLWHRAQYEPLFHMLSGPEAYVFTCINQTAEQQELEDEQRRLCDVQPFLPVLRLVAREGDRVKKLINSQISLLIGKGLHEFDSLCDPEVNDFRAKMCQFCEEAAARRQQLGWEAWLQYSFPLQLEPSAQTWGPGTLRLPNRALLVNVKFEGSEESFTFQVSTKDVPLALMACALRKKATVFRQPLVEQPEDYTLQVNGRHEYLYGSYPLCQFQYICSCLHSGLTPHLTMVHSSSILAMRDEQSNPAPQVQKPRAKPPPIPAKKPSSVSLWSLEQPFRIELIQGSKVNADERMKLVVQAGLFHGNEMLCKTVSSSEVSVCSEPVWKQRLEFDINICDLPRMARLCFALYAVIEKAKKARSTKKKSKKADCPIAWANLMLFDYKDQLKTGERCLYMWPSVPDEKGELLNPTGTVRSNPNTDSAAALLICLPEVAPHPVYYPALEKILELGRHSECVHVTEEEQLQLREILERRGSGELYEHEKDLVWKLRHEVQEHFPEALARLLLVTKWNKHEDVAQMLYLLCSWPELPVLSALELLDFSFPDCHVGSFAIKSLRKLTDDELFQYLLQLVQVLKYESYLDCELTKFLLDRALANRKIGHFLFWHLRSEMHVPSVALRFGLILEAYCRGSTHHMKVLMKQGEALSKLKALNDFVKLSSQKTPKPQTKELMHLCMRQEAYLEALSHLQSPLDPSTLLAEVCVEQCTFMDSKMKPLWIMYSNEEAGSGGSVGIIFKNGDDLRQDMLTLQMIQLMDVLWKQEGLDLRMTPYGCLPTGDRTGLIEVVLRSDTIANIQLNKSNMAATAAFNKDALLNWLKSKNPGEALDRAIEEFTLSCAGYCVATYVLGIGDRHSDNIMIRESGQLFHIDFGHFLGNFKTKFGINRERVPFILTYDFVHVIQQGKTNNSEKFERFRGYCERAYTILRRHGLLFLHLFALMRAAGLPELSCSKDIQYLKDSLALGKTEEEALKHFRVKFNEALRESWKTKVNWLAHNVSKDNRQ
Sequence of PI3K delta (P27986 whole entry partner): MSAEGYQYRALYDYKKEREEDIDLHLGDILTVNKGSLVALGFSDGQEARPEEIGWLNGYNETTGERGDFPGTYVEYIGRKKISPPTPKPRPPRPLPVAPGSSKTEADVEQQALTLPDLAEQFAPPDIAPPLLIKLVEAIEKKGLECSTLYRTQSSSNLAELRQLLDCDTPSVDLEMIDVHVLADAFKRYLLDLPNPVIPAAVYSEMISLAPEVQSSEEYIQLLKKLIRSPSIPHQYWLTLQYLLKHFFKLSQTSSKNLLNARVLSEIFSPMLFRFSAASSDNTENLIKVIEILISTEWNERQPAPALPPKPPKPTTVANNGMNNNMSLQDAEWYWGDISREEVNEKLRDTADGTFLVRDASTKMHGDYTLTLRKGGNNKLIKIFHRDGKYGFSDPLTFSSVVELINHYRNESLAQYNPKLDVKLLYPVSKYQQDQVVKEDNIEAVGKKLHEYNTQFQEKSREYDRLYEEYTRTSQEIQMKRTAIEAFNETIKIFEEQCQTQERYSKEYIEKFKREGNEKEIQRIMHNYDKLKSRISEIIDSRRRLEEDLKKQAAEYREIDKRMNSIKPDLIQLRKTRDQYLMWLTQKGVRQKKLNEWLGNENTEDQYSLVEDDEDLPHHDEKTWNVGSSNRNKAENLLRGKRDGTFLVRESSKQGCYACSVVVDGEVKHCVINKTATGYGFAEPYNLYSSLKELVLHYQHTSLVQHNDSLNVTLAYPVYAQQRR

IC50	SMILES
250 to 500 nM	Cn1c(C(=O)NCC2CC2)nc2c(N3CC(n4c(=O)[nH]c5cc(C(F)(F)F)ccc54)C3)ncnc21 [Compound 145, N-(cyclopropylmethyl)-9-methyl-6-{3-[2-oxo-5-(trifluoromethyl)-2,3-dihydro-1H-benzimidazol-1-yl]azetidin-1-yl}-9H-purine-8-carboxamide]
< 50 nM	CCn1cc(-c2nc3c(N4CCC(n5c(=O)[nH]c6ccccc65)CC4)ncnc3n2C)cn1 [Compound 146, 1-{1-[8-(1-Ethyl-1H-pyrazol-4-yl)-9-methyl-9H-purin-6-yl]piperidin-4-yl}-1,3-dihydro-2H-benzimidazol-2-one]
< 50 nM	CCCn1cc(-c2nc3c(N4CCC(n5c(=O)[nH]c6ccccc65)CC4)ncnc3n2C)cn1 [Compound 147, 1-{1-[9-methyl-8-(1-propyl-1H-pyrazol-4-yl)-9H-purin-6-yl]piperidin-4-yl}-1,3-dihydro-2H-benzimidazol-2-one]
< 50 nM	CC(C)Cn1cc(-c2nc3c(N4CCC(n5c(=O)[nH]c6ccccc65)CC4)ncnc3n2C)cn1 [Compound 148, 1-(1-{9-methyl-8-[1-(2-methylpropyl)-1H-pyrazol-4-yl]-9H-purin-6-yl}piperidin-4-yl)-1,3-dihydro-2H-benzimidazol-2-one]
< 50 nM	Cn1cc(-c2nc3c(N4CCC(n5c(=O)[nH]c6ccccc65)CC4)ncnc3n2C)cn1 [Compound 149, 1-{1-[9-Methyl-8-(1-methyl-1H-pyrazol-4-yl)-9H-purin-6-yl]piperidin-4-yl}-1,3-dihydro-2H-benzimidazol-2-one]
< 50 nM	CC(C)n1cc(-c2nc3c(N4CCC(n5c(=O)[nH]c6ccccc65)CC4)ncnc3n2C)cn1 [Compound 152, 1-(1-{9-methyl-8-[1-(1-methylethyl)-1H-pyrazol-4-yl]-9H-purin-6-yl}piperidin-4-yl)-1,3-dihydro-2H-benzimidazol-2-one]
50 to 250 nM	Cn1c(-n2cnc(Br)c2)nc2c(N3CCC(n4c(=O)[nH]c5ccccc54)CC3)ncnc21 [Compound 153, 1-{1-[8-(4-bromo-1H-imidazol-1-yl)-9-methyl-9H-purin-6-yl]piperidin-4-yl}-1,3-dihydro-2H-benzimidazol-2-one]
< 50 nM	CCn1c(C(=O)N[C@H]2CC[C@H](O)CC2)nc2c(N3CCC(n4c(=O)[nH]c5ccccc54)CC3)ncnc21 [Compound 154, 9-ethyl-N-(trans-4-hydroxycyclohexyl)-6-[4-(2-oxo-2,3-dihydro-1H-benzimidazol-1-yl)piperidin-1-yl]-9H-purine-8-carboxamide]
< 50 nM	CCn1c(C(=O)NCC(F)(F)F)nc2c(N3CCC(n4c(=O)[nH]c5ccccc54)CC3)ncnc21 [Compound 155, 9-ethyl-6-[4-(2-oxo-2,3-dihydro-1H-benzimidazol-1-yl)piperidin-1-yl]-N-(2,2,2-trifluoroethyl)-9H-purine-8-carboxamide]
< 50 nM	CCn1c(C(=O)NCC2CCOCC2)nc2c(N3CCC(n4c(=O)[nH]c5ccccc54)CC3)ncnc21 [Compound 156, 9-ethyl-6-[4-(2-oxo-2,3-dihydro-1H-benzimidazol-1-yl)piperidin-1-yl]-N-(tetrahydro-2H-pyran-4-ylmethyl)-9H-purine-8-carboxamide]
50 to 250 nM	CCCCNC(=O)c1nc2c(N3CCC(n4c(=O)[nH]c5ccccc54)CC3)ncnc2n1CC [Compound 157, N-butyl-9-ethyl-6-[4-(2-oxo-2,3-dihydro-1H-benzimidazol-1-yl)piperidin-1-yl]-9H-purine-8-carboxamide]
< 50 nM	CCn1c(C(=O)NCC(C)C)nc2c(N3CCC(n4c(=O)[nH]c5ccccc54)CC3)ncnc21 [Compound 158, 9-ethyl-N-(2-methylpropyl)-6-[4-(2-oxo-2,3-dihydro-1H-benzimidazol-1-yl)piperidin-1-yl]-9H-purine-8-carboxamide]
< 50 nM	CCn1c(C(=O)N[C@H]2CC[C@H](O)CC2)nc2c(N3CCC4(CC3)C(=O)Nc3ccccc34)ncnc21 [Compound 159, 9-ethyl-N-(trans-4-hydroxycyclohexyl)-6-(2-oxo-1,2-dihydro-1′H-spiro[indole-3,4′-piperidin]-1′-yl)-9H-purine-8-carboxamide]
< 50 nM	CCn1c(C(=O)NCC(F)(F)F)nc2c(N3CCC4(CC3)C(=O)Nc3ccccc34)ncnc21 [Compound 160, 9-ethyl-6-(2-oxo-1,2-dihydro-1′H-spiro[indole-3,4′-piperidin]-1′-yl)-N-(2,2,2-trifluoroethyl)-9H-purine-8-carboxamide]
< 50 nM	CCn1c(C(=O)NCC2CCOCC2)nc2c(N3CCC4(CC3)C(=O)Nc3ccccc34)ncnc21 [Compound 161, 9-ethyl-6-(2-oxo-1,2-dihydro-1′H-spiro[indole-3,4′-piperidin]-1′-yl)-N-(tetrahydro-2H-pyran-4-ylmethyl)-9H-purine-8-carboxamide]
< 50 nM	CCCCNC(=O)c1nc2c(N3CCC4(CC3)C(=O)Nc3ccccc34)ncnc2n1CC [Compound 162, N-butyl-9-ethyl-6-(2-oxo-1,2-dihydro-1′H-spiro[indole-3,4′-piperidin]-1′-yl)-9H-purine-8-carboxamide]

IC50	SMILES
< 50 nM	CCn1c(C(=O)NCC2CC2)nc2c(N3CCC4(CC3)C(=O)Nc3ccccc34)ncnc21 [Compound 163, N-(cyclopropylmethyl)-9-ethyl-6-(2-oxo-1,2-dihydro-1′H-spiro[indole-3,4′-piperidin]-1′-yl)-9H-purine-8-carboxamide]
< 50 nM	CCn1c(C(=O)NCC(C)C)nc2c(N3CCC4(CC3)C(=O)Nc3ccccc34)ncnc21 [Compound 164, 9-ethyl-N-(2-methylpropyl)-6-(2-oxo-1,2-dihydro-1′H-spiro[indole-3,4′-piperidin]-1′-yl)-9H-purine-8-carboxamide]
50 to 250 nM	Cn1c(-n2cnc(C(F)(F)F)c2)nc2c(N3CCC(n4c(=O)[nH]c5ccccc54)CC3)ncnc21 [Compound 165, 1-(1-{9-methyl-8-[4-(trifluoromethyl)-1H-imidazol-1-yl]-9H-purin-6-yl}piperidin-4-yl)-1,3-dihydro-2H-benzimidazol-2-one]
500 to 1500 nM	Cn1c(-c2cc[nH]c2)nc2c(N3CCC(n4c(=O)[nH]c5ccccc54)CC3)ncnc21 [Compound 166, 1-{1-[9-methyl-8-(1H-pyrrol-3-yl)-9H-purin-6-yl]piperidin-4-yl}-1,3-dihydro-2H-benzimidazol-2-one]
< 50 nM	C=C(C)c1cn(-c2nc3c(N4CCC(n5c(=O)[nH]c6ccccc65)CC4)ncnc3n2C)cn1 [Compound 167, 1-(1-{9-methyl-8-[4-(1-methylethenyl)-1H-imidazol-1-yl]-9H-purin-6-yl}piperidin-4-yl)-1,3-dihydro-2H-benzimidazol-2-one]
< 50 nM	Cn1c(C(=O)NCC2CC2)nc2c(N3CCC4(CC3)C(=O)Nc3c(Br)cccc34)ncnc21 [Compound 168, 6-(7-bromo-2-oxo-1,2-dihydro-1′H-spiro[indole-3,4′-piperidin]-1′-yl)-N-(cyclopropylmethyl)-9-methyl-9H-purine-8-carboxamide]
50 to 250 nM	Cn1c(C(=O)NCC2CC2)nc2c(N3CCC(n4c(=S)[nH]c5ccccc54)CC3)ncnc21 [Compound 169, N-(cyclopropylmethyl)-9-methyl-6-[4-(2-thioxo-2,3-dihydro-1H-benzimidazol-1-yl)piperidin-1-yl]-9H-purine-8-carboxamide]
250 to 500 nM	Cn1c(C(=O)NCC2CC2)nc2c(N3CCC4(CC3)CC(=O)Nc3ccccc3O4)ncnc21 [Compound 170, N-(cyclopropylmethyl)-9-methyl-6-(4-oxo-4,5-dihydro-1′H,3H-spiro[1,5-benzoxazepine-2,4′-piperidin]-1′-yl)-9H-purine-8-carboxamide]
50 to 250 nM	O=C(NCC1CC1)c1nc2c(N3CCC(n4c(=O)[nH]c5ccccc54)CC3)ncnc2n1C1CC1 [Compound 171, 9-Cyclopropyl-N-(cyclopropylmethyl)-6-[4-(2-oxo-2,3-dihydro-1H-benzimidazol-1-yl)piperidin-1-yl]-9H-purine-8-carboxamide]
500 to 1500 nM	Cn1c(C(=O)NCC2CC2)nc2c(N3CCC(n4c(=O)[nH]c5ccccc54)C3)ncnc21 (centres unmarked) [Compound 172, N-(cyclopropylmethyl)-9-methyl-6-[3-(2-oxo-2,3-dihydro-1H-benzimidazol-1-yl)pyrrolidin-1-yl]-9H-purine-8-carboxamide]
250 to 500 nM	CC(C)CNC(=O)c1nc2c(N3CCC(n4c(=O)[nH]c5ccccc54)CC3)ncnc2n1C1CC1 [Compound 173, 9-cyclopropyl-N-(2-methylpropyl)-6-[4-(2-oxo-2,3-dihydro-1H-benzimidazol-1-yl)piperidin-1-yl]-9H-purine-8-carboxamide]
< 50 nM	CC(C)c1nnc(-c2nc3c(N4CCC5(CC4)C(=O)Nc4ccccc45)ncnc3n2C)o1 [Compound 174, 1′-{9-methyl-8-[5-(1-methylethyl)-1,3,4-oxadiazol-2-yl]-9H-purin-6-yl}spiro[indole-3,4′-piperidin]-2(1H)-one]
50 to 250 nM	O=C(NCC1CC1)c1nc2c(N3CCC4(CC3)C(=O)Nc3ccccc34)ncnc2n1C1CC1 [Compound 175, 9-cyclopropyl-N-(cyclopropylmethyl)-6-(2-oxo-1,2-dihydro-1′H-spiro[indole-3,4′-piperidin]-1′-yl)-9H-purine-8-carboxamide]
50 to 250 nM	CC(C)CNC(=O)c1nc2c(N3CCC4(CC3)C(=O)Nc3ccccc34)ncnc2n1C1CC1 [Compound 176, 9-cyclopropyl-N-(2-methylpropyl)-6-(2-oxo-1,2-dihydro-1′H-spiro[indole-3,4′-piperidin]-1′-yl)-9H-purine-8-carboxamide]
< 50 nM	CCCc1nnc(-c2nc3c(N4CCC5(CC4)C(=O)Nc4ccccc45)ncnc3n2C)o1 [Compound 177, 1′-[9-methyl-8-(5-propyl-1,3,4-oxadiazol-2-yl)-9H-purin-6-yl]spiro[indole-3,4′-piperidin]-2(1H)-one]
50 to 250 nM	Cn1c(-c2cnn(CCO)c2)nc2c(N3CCC(n4c(=O)[nH]c5ccccc54)CC3)ncnc21 [Compound 178, 1-{1-(8-[1-(2-hydroxyethyl)-1H-pyrazol-4-yl]-9-methyl-9H-purin-6-yl}piperidin-4-yl)-1,3-dihydro-2H-benzimidazol-2-one]
